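96-well plates; 48 h exposure; 5 concentrations. Endpoints by linear interpolation between flanking doses. Not reached: highest tested concentration assigned. Here, GI50 denotes the concentration required for 50% inhibition of growth.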 Calls of active or inactive are those of the source. No stated cut-off is given here; in the data, active = GI50 up to about 1.1 µM and inactive = higher.
Columns and labels:
Experiment in all cases: NCI anticancer screen, dose series, 48 h
HCT-116 = test system: HCT-116
NCI-H23 = test system: NCI-H23
NCI-H460 = test system: NCI-H460
A498 = test system: A498
SNB-75 = test system: SNB-75
T47D = test system: T47D
TK-10 = test system: TK-10
BT-549 = test system: BT-549
Hs-578T = test system: Hs-578T
RXF 393 = test system: RXF 393
KM12 = test system: KM12
U-251 = test system: U-251
HOP-62 = test system: HOP-62
SNB-19 = test system: SNB-19
SK-OV-3 = test system: SK-OV-3
OVCAR-3 = test system: OVCAR-3
MDA-N = test system: MDA-N
Malme-3M = test system: Malme-3M
DU-145 = test system: DU-145

Measured: GI50

CN(C)/C=N/S(=O)(=O)c1nn2c(C=O)c(-c3ccccc3)nc2s1
inactive: HCT-116 3.26 µM | NCI-H23 19.7 µM | NCI-H460 20.8 µM | A498 67.6 µM | SNB-75 59.7 µM | T47D 15.7 µM | TK-10 12.9 µM | BT-549 4.65 µM | Hs-578T 19.5 µM | RXF 393 13 µM | KM12 22.6 µM | U-251 15.9 µM | HOP-62 47.2 µM | SNB-19 36 µM | SK-OV-3 > 80.5 µM | OVCAR-3 8.32 µM | MDA-N 10.2 µM | Malme-3M 12.9 µM | DU-145 23.4 µM

CCC1=[N+](CC)CCN1CC
inactive: HCT-116 > 100 µM | NCI-H23 > 100 µM | NCI-H460 > 100 µM | A498 > 100 µM | SNB-75 > 100 µM | T47D > 100 µM | TK-10 > 100 µM | BT-549 > 100 µM | Hs-578T > 100 µM | RXF 393 > 100 µM | KM12 > 100 µM | U-251 > 100 µM | HOP-62 > 100 µM | SNB-19 > 100 µM | SK-OV-3 > 100 µM | OVCAR-3 > 100 µM | MDA-N > 100 µM | Malme-3M > 100 µM | DU-145 > 100 µM

CCCc1nnc2sc(COc3ccc(OCc4nn5c(CCC)nnc5s4)c(Cl)c3)nn12
inactive: HCT-116 27 µM | NCI-H23 20.2 µM | NCI-H460 23.3 µM | A498 23.6 µM | SNB-75 22.2 µM | T47D 2.78 µM | TK-10 31.3 µM | BT-549 23.9 µM | Hs-578T 47 µM | RXF 393 27 µM | KM12 31 µM | U-251 38.2 µM | HOP-62 47.8 µM | SNB-19 33.8 µM | SK-OV-3 36.6 µM | OVCAR-3 26 µM | MDA-N 16.9 µM | Malme-3M 22.1 µM | DU-145 24.8 µM

Cc1nn2c(=O)c([N+](=O)[O-])c(/C=C/c3ccc(F)cc3)nc2s1
inactive: HCT-116 6.41 µM | NCI-H23 15.2 µM | NCI-H460 8.34 µM | A498 16.3 µM | SNB-75 9.27 µM | T47D 4.03 µM | TK-10 14.1 µM | BT-549 5.12 µM | Hs-578T 11.2 µM | RXF 393 4.42 µM | KM12 7.24 µM | U-251 4.84 µM | HOP-62 15 µM | SNB-19 10.8 µM | SK-OV-3 12.6 µM | OVCAR-3 4.28 µM | MDA-N 5.96 µM | Malme-3M 11.6 µM | DU-145 16.2 µM
